Data: patent US6358884B1, “Bacteriocidal and fungicidal solution containing inorganic silver complex salt and process for producing the same” (Sumitomo Metal Mining Co., Ltd., priority 1997, dated 2002)

Columns and labels:
[1] = system: Staphylococcus aureus; experiment: Bacteriocidal test for Staphylococcus aureus (sprayed filter paper, plate culture); type: cell-based
Procedure: Using the same aqueous solution containing silver as the chloro complex salt as in Example 1 above a bacteriocidal effect to Staphylococcus aureus was evaluated. As a comparison, a bacteriocidal test was conducted in the same manner by using a sterilizing ethanol as a bacteriocidal agent instead of the aqueous solution described above. The evaluation method is as shown below.
Each of the test specimen solutions was sprayed each about by 1 g as the bacteriocidal agent do so as to be substantially uniform by using a spray on 5A filter paper of 11 cm diameter and then each filter paper was left in a room with no air conditioning facility at a room temperature for 24 hours. Subsequently, a bacteria solution adjusted to a cell number of 7×10^4 N/ml by a preliminary test was dropped each by 1 ml by using a micro-pipette to each filter paper and further left in a room with no air conditioning facility at a room temperature for 24 hours.
Then, each filter paper was transferred to a sterilized cup, and vigorously shaken for 2 min by a shaker with addition of 100 ml of water. Subsequently, 1 ml of a test solution was sampled from each of sterilized cups, subjected to plate culture at 36° C. for 72 hours each with addition of ordinary agar culture medium, and the number of colonies formed was counted.
Further as a blank test, 1 ml of a solution diluted by 100 times from the bacterial solution described above (the number of cells about 7×10^4 N/ml) was sampled to a Shale without using the bacteriocidal agent, cultivated in the same manner as described above with addition of a usual agar medium, and the number of formed colonies was counted.

[2] = system: bacteria; details: according to "Metal", vol. 65 (1995), No. 11; cited from earlier work
[3] = system: fungi; details: according to "Metal", vol. 65 (1995), No. 11; cited from earlier work

Molecule	Number of cells in Shale ([1]; about 1 g sprayed on filter paper, 1 ml bacteria solution 7×10^4 N/ml, 24 h, plate culture 36° C. 72 hours)	colonies in the Shale ([1]; cultivation time of 48 hours)	Number of cells per filter paper ([1]; per filter paper (1 ml of bacterial solution), plate culture 36° C. 72 hours)	Increase/decrease ratio for Number of cell ([1]; ratio to the number of cells dropped to filter paper (7×10^4 N/ml), 72 hours cultivation)	concentration showing slow releasing bacteriocidal effect [2]	concentration showing slow releasing fungicidal effect [3]
CCO [Sterilizing ethanol, ethanol]	507	colonies were already formed	5.1 × 10^4	72.9%		
silver ions					≥ 0.05 mg/L	≥ 0.5 mg/L
